The text below walks through data of patent US10526311B2 (ASTEX THERAPEUTICS LIMITED, priority 2015, dated 2020).

By IC50 is commonly meant the concentration needed to halve the response being measured.

Molecules are shown by their SMILES.

The first test relates to SJSA-1. The test is described as follows: Protocol B: SJSA-1 CellTiter-Glo cell viability. The settings on record: Homo sapiens, SJSA-1, 72 h, read-out: SJSA1 IC50 (Protocol B), SJSA-1 cells, CellTiter-Glo, 72 hrs. In general terms: ATP-based viability assays read luminescence as a measure of living cells.
Description: Protocol B: SJSA-1 and SN40R2 Assays
The CellTiter-Glo® Luminescent Cell Viability Assay is a homogeneous method to determine the number of viable cells in culture based on quantitation of the ATP present, which signals the presence of metabolically active cells. […] 100 μl of CTG reagent (Promega #G7573) was added to all wells and luminescence was measured on the topcount. The EC50 values were determined from a sigmoidal 4 parameter curve fit using XLfit in conjunction with Activity Base (IDBS; Guildford, Surrey, UK).
Regarding `Cc1c[nH]c(C(C)(O)c2cc(F)c3c(c2)C(=O)N(Cc2ccc(Cl)cn2)[C@@]3(OCC2(O)CC2)c2ccc(Cl)cc2)n1` (mixture of isomers) [Example 332, (3R)-3-(4-chlorophenyl)-2-[(5-chloropyridin-2-yl)methyl]-4-fluoro-6-[1-hydroxy-1-(4-methyl-1H-imidazol-2-yl)ethyl]-3-[(1-hydroxycyclopropyl)methoxy]-2,3-dihydro-1H-isoindol-1-one], the IC50 came out at 2.6 µM. Take `CN1CCN(CC(C)(O)c2cc(F)c3c(c2)C(=O)N(Cc2ccc(C#N)cn2)[C@@]3(OCC2(C#N)CC2)c2ccc(Cl)cc2)CC1` (stereo partly drawn) [Example 279, 6-{[(1R)-1-(4-chlorophenyl)-1-[(1-cyanocyclopropyl)methoxy]-7-fluoro-5-[2-hydroxy-1-(4-methylpiperazin-1-yl)propan-2-yl]-3-oxo-2,3-dihydro-1H-isoindol-2-yl]methyl}pyridine-3-carbonitrile]: the IC50 is 0.57 µM.

For `CC(O)(c1cc(F)c2c(c1)C(=O)N(Cc1ccc(C#N)cn1)[C@@]2(OCC1(C#N)CC1)c1ccc(Cl)cc1)C1CCOCC1` (single isomer, unassigned) [Example 282], the IC50 worked out at 0.061 µM.

Staying with this test, now noted: Homo sapiens, SJSA-1, 72 h, read-out: SJSA1 IC50 (μM) (Protocol B), SJSA-1, Protocol B (CellTiter-Glo), 72 hrs.
Consider `CC[C@@](O)(c1cc(F)c2c(c1)C(=O)N(Cc1ncc(Cl)cc1O)[C@@]2(O[C@H]1CCOC1)c1ccc(Cl)cc1)C1CCN(C)CC1` [Example 568, 2-[(5-chloro-3-hydroxypyridin-2-yl)methyl]-3-(4-chlorophenyl)-4-fluoro-6-[(1S)-1-hydroxy-1-(1-methylpiperidin-4-yl)propyl]-3-[(3S)-oxolan-3-yloxy]-2,3-dihydro-1H-isoindol-1-one], for which the IC50 is 0.094 µM. Same read-out and setting: the figure for `CC[C@](O)(c1cc(F)c2c(c1)C(=O)N(Cc1ncc(C#N)cn1)[C@@]2(O[C@H]1C[C@@H](O)C1)c1ccc(Cl)cc1)C1(F)CCOCC1` [Example 506, 2-{[(1R)-1-(4-chlorophenyl)-7-fluoro-5-[(1S)-1-(4-fluorooxan-4-yl)-1-hydroxypropyl]-3-oxo-1-[cis-3-hydroxycyclobutoxy]-2,3-dihydro-1H-isoindol-2-yl]methyl}pyrimidine-5-carbonitrile] is 3.4 µM; for `CO[C@]1(c2ccc(Cl)cc2)c2c(F)cc(C(C)(O)C3CN(C(=O)N(C)C)C3)cc2C(=O)N1Cc1ccc(C#N)cn1` (single isomer, unassigned) [Example 393] it is 0.79 µM. The same measure, in the same setting: to `CCC(O)(c1cc(F)c2c(c1)C(=O)N(Cc1ncc(Cl)cn1)[C@@]2(O[C@H]1CCOC1)c1ccc(Cl)cc1)C1CCNCC1` (single isomer, unassigned) [Example 448] belongs 0.86 µM; to `CCC(O)(c1cc(F)c2c(c1)C(=O)N(Cc1ncc(C#N)cn1)[C@@]2(O[C@H]1CCOC1)c1ccc(Cl)cc1)C1(F)CCNCC1` (single isomer, unassigned) [Example 547], 0.96 µM.

`CCC(O)(c1cc(F)c2c(c1)C(=O)N(Cc1ccc(C#N)cn1)[C@@]2(O[C@H]1CCOC1)c1ccc(Cl)cc1)C1(F)CCNCC1` (single isomer, unassigned) [Example 546]: the IC50 stood at 0.7 µM. `CCC(O)(c1cc(F)c2c(c1)C(=O)N(Cc1ncc(Cl)cn1)[C@@]2(OC[C@@H](C)O)c1ccc(Cl)cc1)C1(F)CCNCC1` (single isomer, unassigned) [Example 543]: the IC50 was found to be 0.69 µM. Turning to `CCC(O)(c1cc(F)c2c(c1)C(=O)N(Cc1ncc(Cl)cn1)[C@@]2(O[C@H]1C[C@@H](O)C1)c1ccc(Cl)cc1)C1(F)CCNCC1` (single isomer, unassigned) [Example 542], the IC50 was 3.1 µM. Same read-out and setting: to `CCC(O)(c1cc(F)c2c(c1)C(=O)N(Cc1ccc(C#N)cn1)[C@@]2(OCCO)c1ccc(Cl)cc1)C1(F)CCOCC1` (single isomer, unassigned) [Example 499] belongs 0.053 µM; to `CCC(O)(c1cc(F)c2c(c1)C(=O)N(Cc1ccc(C#N)cn1)[C@@]2(OCC1(F)COC1)c1ccc(Cl)cc1)c1cn(C)cn1` (single isomer, unassigned) [Example 435], 0.015 µM.

Take `CCC(O)(c1cc(F)c2c(c1)C(=O)N(Cc1ncc(Cl)cn1)[C@@]2(OCC1(C#N)CC1)c1ccc(Cl)cc1)C1(F)CCNCC1` (single isomer, unassigned) [Example 545]: the half-inhibitory concentration (IC50) came to 0.094 µM.

With `CC[C@@](O)(c1cc(F)c2c(c1)C(=O)N(Cc1ncc(Cl)cn1)[C@@]2(O[C@H]1C[C@@H](O)C1)c1ccc(Cl)cc1)C1CCN(C)CC1` [Example 560, (3R)-3-(4-chlorophenyl)-2-[(5-chloropyrimidin-2-yl)methyl]-4-fluoro-6-[(1S)-1-hydroxy-1-(1-methylpiperidin-4-yl)propyl]-3-[cis-3-hydroxycyclobutoxy]-2,3-dihydro-1H-isoindol-1-one], the IC50 was found to be 0.13 µM. On the same count and under the same terms, to `Cn1cnc(C(C)(O)c2cc(F)c3c(c2)C(=O)N(Cc2ncc(C#N)cn2)[C@@]3(OCC2(F)COC2)c2ccc(Cl)cc2)c1` (single isomer, unassigned) [Example 468] belongs 0.48 µM. The same measure, in the same setting: to `CC(O)(c1cc(F)c2c(c1)C(=O)N(Cc1ncc(Cl)cn1)[C@@]2(OCCO)c1ccc(Cl)cc1)C1(F)CCOCC1` (single isomer, unassigned) [Example 578] belongs 0.12 µM; to `[2H]C([2H])(O)C([2H])([2H])O[C@]1(c2ccc(Cl)cc2)c2c(F)cc(C(O)(CC)C3(F)CCN(C)CC3)cc2C(=O)N1Cc1ncc(Cl)cn1` (stereo partly drawn) [Example 580, (3R)-3-(4-chlorophenyl)-2-[(5-chloropyrimidin-2-yl)methyl]-4-fluoro-6-[1-(4-fluoro-1-methylpiperidin-4-yl)-1-hydroxypropyl]-3-[2-hydroxy(1,1,2,2-tetradeutero)ethoxy]-2,3-dihydro-1H-isoindol-1-one], 0.014 µM.

The test is the same for the next values; noted with them: at 10 μM.
Take `CC(O)(c1cc(F)c2c(c1)C(=O)N(Cc1ccc(Cl)cn1)[C@@]2(OCCO)c1ccc(Cl)cc1)C1CCS(=O)(=O)CC1` (single isomer, unassigned) [Example 314]: the “SJSA1 (Protocol B) % at concentration” value stood at 66% at 10.

The same test, now with this note: read-out: SJSA1 IC50 (Protocol B); SJSA-1 cells, CellTiter-Glo, 72 hrs.
As to `COc1ccc(CN2C(=O)c3cc(C(C)(O)c4cnn(C)c4)cc(F)c3[C@]2(OCC2(CO)CC2)c2ccc(Cl)cc2)cn1` (single isomer, unassigned) [Example 219], the concentration for half-maximal inhibition (IC50) is 0.11 µM. Still for that read-out and setting: to `CO[C@]1(c2ccc(Cl)cc2)c2c(F)cc(C(C)(O)c3cn(C)c(C)n3)cc2C(=O)N1Cc1ccc(Cl)cn1` (single isomer, unassigned) [Example 161] belongs 4.3 µM; to `CO[C@]1(c2ccc(Cl)cc2)c2c(F)cc(C(C)(O)c3ncc[nH]3)cc2C(=O)N1Cc1ccc(Cl)cn1` (stereo partly drawn) [Example 164, (3R)-3-(4-chlorophenyl)-2-[(5-chloropyridin-2-yl)methyl]-4-fluoro-6-[1-hydroxy-1-(1H-imidazol-2-yl)ethyl]-3-methoxy-2,3-dihydro-1H-isoindol-1-one], 2.2 µM.

Staying with this test, now noted: read-out: SJSA1 IC50 (μM) (Protocol B); SJSA-1, Protocol B (CellTiter-Glo), 72 hrs.
Take `CCC(O)(c1cc(F)c2c(c1)C(=O)N(Cc1ncc(C#N)cn1)[C@@]2(OCC1(F)COC1)c1ccc(Cl)cc1)c1cn(C)cn1` (single isomer, unassigned) [Example 470]: the IC50 came to 0.1 µM. Same read-out and setting: the figure for `CC(O)(c1cc(F)c2c(c1)C(=O)N(Cc1ncc(Cl)cn1)[C@@]2(OCC1(CO)CC1)c1ccc(Cl)cc1)[C@H]1CC[C@H](O)CC1` (single isomer, unassigned) [Example 401] is 0.0098 µM; for `[2H]C([2H])(O)C1(C([2H])([2H])O[C@]2(c3ccc(Cl)cc3)c3c(F)cc(C(O)(CC)c4cn(C)cn4)cc3C(=O)N2Cc2ccc(C#N)cn2)CC1` (single isomer, unassigned) [Example 440] it is 1.9 µM.
